Measurements from patent US20210121438A1, “METHODS FOR TREATING OR PREVENTING CONFORMATION DISEASES AND METHODS FOR DRUG SCREENING” (GARAGE BRAIN SCIENCE CO., LTD, priority 2018, published 2021).

What was measured:
[1] = tested on: TDP-43-mediated CFTR exon 9 skipping; test: Alternative splicing assay (in vivo splicing, CFTR minigene); type: cell-based
Description: Alternative Splicing Assay: TDP-43-mediated CFTR exon 9 skipping assays were performed as previously described. Briefly, cells were cotransfected with TDP-43 plasmid, hCF-(TG)13(T)5 minigenes and the indicated plasmids, including VCP/p97 wt, VCP/p97 QQ, HSPB1, lamin A or progeria, or HSPB1 siRNA. Total RNA of transfectanted cells was isolated by TRIzol reagent (Invitrogen), and RT-PCR was carried out by Superscript III (Invitrogen) using specific primers to amplify exons 8-10 of CFTR according to the manufacturer's protocol. The relative amounts of cDNA were validated on 1.3% agarose gels. […]

[2] = tested on: TDP-43 in cells expressing progeria proteins; test: Localization of TDP-43 in progeria-expressing cells (immunofluorescence); type: cell-based
Description: Immunohistochemistry: Fluorescence staining was performed as described previously (Wang et al., 2012). Cells were transfected with or without plasmids or siRNAs and grown for 24 to 48 hr. Cells were fixed with 3.7% paraformaldehyde in PBS at RT for 15 min and then permeabilized with 0.1% Triton X-100. The fixed cells were incubated with primary antibodies at RT for 2 hr followed by incubation with Cy2- or Cy3-labeled secondary antibodies (Molecular Probes). Slides were mounted using Vectashield DAPI H-1200 (Vector). Cellular fluorescence images were collected using an LSM710 META laser-scanning confocal microscope (Zeiss).
To further characterize whether TDP-43 proteins are present in the nuclear matrix, consisting of proteins such as lamina A/C, we double-stained TDP-43 (green) with lamina A/C (red) (FIG. 7). The TDP-43 fibrogranular framework was partially connected to lamina A/C (FIG. 7a, the arrow indicates the colocalization area). As defective lamin A can cause progeria and the a premature aging disorder HGPS, overexpression of progeria proteins is considered a cell model of aging and allowed us to explore the mechanistic link between TDP-43 and aging or a lamin A pathology. We thus overexpressed progeria proteins and examined TDP-43 localization, the efficiency of TDP-43PLD-mediated exon 9 skipping and TDP-43 polymers. […]

SMNA7 cells = test: Morphology (neurite-like structure) of SMNA7 cells; type: cell-based; conditions: baicalein
From the text: (§1) We investigate whether baicalein can act as a pharmacological chaperone to refold misfolded SMNA7 into a functional prion-like domain, as shown in FIG. 8 (FIG. 10a). […] PFN1 is a known SMN interactor in the cytosol. We further examined whether baicalein attenuated the degradation of the SMNA7 protein. […] We found baicalein increased the length of axons from NSC34 cells expressing SMNA7 by approximately 2-fold (FIG. 10g).

[3] = tested on: NSC34 cells expressing SMNA7; test: Axon/neurite length of NSC34 motor neurons expressing SMNA7; type: cell-based; conditions: NSC34 cells expressing SMNA7, baicalein 50 μM
From the text: as §1
We increased the amount of functional prion-like domains by overexpressing the TDP-43 prion-like domain (TDP-43-PLD) in NSC34 motor neuron cells expressing the SMNA7 proteins to confirm that the reduced level of the functional prion-like conformer caused axon degeneration in SMNΔ7-expressing neurons. The TDP-43-PLD is expected to adopt a common, structurally similar β sheet to compensate for the prion-like function of SMN through hetero-polymerization. […] Thus, the level of the prion-like conformer is critical for motor neuron survival, and other functionally unrelated prion-like proteins can compensate for the function of the defective protein.

SMA mice (Smn−/−SMN2+/−) = test: Motor function tests in SMA mice (turnover, tube, negative geotaxis); type: in vivo
From the text: Mice: A mouse model of SMA was produced by deleting exon 7 of the Smn gene and knock-in of the human SMN2 gene (Smn−/−SMN2+/−). We were able to generate a variant that presents a more severe disease symptomatology through back-crossing to obtain a more homogenous genetic background. This model of severe SMA harbors two copies of the SMN2 transgene (Smn−/−SMN2+/−). The mouse model of SMA was generated through crossing the heterozygous knockout mice (Smn+/−SMN2−/−) with the homozygous knockout mice carrying two copies of the SMN2 transgene (Smn−/−SMN2+/+). SMA mice were subjected to daily intraperitoneal injections of baicalein (40 mg/kg/d in alcohol) or alcohol alone (control) from birth and then subjected to motor function tests and survival analysis. Three behavioral tests, the turnover test, tube test and negative geotaxis test, were conducted to evaluate the motor function of mice with SMA (Smn−/−SMN2+/−) and heterozygous littermates (Smn+/−SMN2+/−), as previously described. In the turnover test, the time required for a mouse to right itself and place all four paws on the ground from a prone position was recorded (the cutoff time was 60 s). The tube test was used to determine hind limb strength according to the posture of the hind limbs and the tail; scores ranged from 0 (the worst) to 4 (the best). In the negative geotaxis test, mice were placed on a 45° incline with their head pointing downward. The responses (turning and climbing) were scored from 0 (the worst) to 4 (the best).
A mouse model of SMA received daily intraperitoneal injections of baicalein ([…]) from birth, and we then assessed the animals using motor function tests and survival analyses to determine whether the in vitro findings were recapitulated in a mouse model in vivo (FIG. 10i). However, after baicalein treatment, the functional performance of SMA mice, including righting time, tube score, and tilting score, was improved at the 6th postnatal day (p<0.05), and the results were similar to heterozygous littermates treated with or without baicalein. […] Our studies provide a method for restoring the functional SMN protein by modulating the folding of the SMNA7 C-terminus and SMA-associated mutants to ensure that the protein performs the cellular functions of full-length SMN.

[4] = SMA mice, daily intraperitoneal baicalein 13.6 mg/kg/d from birth, 6th postnatal day, p<0.05

With `O=c1cc(-c2ccccc2)oc2cc(O)c(O)c(O)c12` [baicalein] the “CFTR exon 9 skipping” value ([1]; VCP/p97-QQ-expressing cells) was “increased CFTR exon 9 skipping”, the “failure of TDP-43 to promote CFTR exon 9 skipping” value ([1]; cells co-transfected with TDP-43 and VCP/p97 R155H mutant) was “corrected” and the “dysfunction caused by FTLD/ALS-linked sporadic mutation R361S of TDP-43” value ([1]; cells expressing VCP/p97-QQ) was “rescued dysfunction”. For the same compound, the “dysfunction of proline substitution mutant GFP-TDP-43-Q303P” value ([1]; cells expressing VCP/p97-QQ) was “rescued dysfunction”, the “TDP-43 dysfunction (CFTR exon 9 skipping)” value ([1]; cells expressing progeria) was “rescued TDP-43 dysfunction caused by progeria in a dose-dependent manner” and the “restoring ratio of exon skipping” value ([1]; cells expressing progeria, baicalein 10 μm) was 1.31. The “restoring ratio of exon skipping” value ([1]; cells expressing progeria, baicalein 50 μm) was 1.91, the “TDP-43-mediated CFTR exon 9 skipping” value ([1]; cells treated with only baicalein, TDP-43 overexpressed) was “enhanced ability to promote the TDP-43-mediated CFTR exon 9 skipping in a dose-dependent manner” and the “exon skipping of CFTR” value ([1]; without co-overexpressing TDP-43 proteins) was “no effect”. For the same compound, the “nuclear localization of TDP-43” value [2] was “significantly induced the retention of nuclear TDP-43”, the “neurite-like structure of SMNA7 cells” value (SMNA7 cells) was “increased the neurite-like structure of SMNA7 cells” and the “increase of length of axons” value [3] was “approximately 2 fold”. The “functional performance in the tube test versus control SMA mice” value (SMA mice (Smn−/−SMN2+/−); 8th postnatal day, p=0.009) was “better than that of the control SMA mice”, the “functional performance better than control SMA mice in the negative geotaxis test” value (SMA mice (Smn−/−SMN2+/−); 8th postnatal day, p=0.58) was “not” and the “righting time (turnover test)” value (SMA mice (Smn−/−SMN2+/−); [4]) was “improved”. For the same compound, the “tilting score (negative geotaxis test)” value (SMA mice (Smn−/−SMN2+/−); [4]) was “improved” and the tube score (SMA mice (Smn−/−SMN2+/−); [4]) was “improved”.
